Laboratory results: patent US20100120839A1, “PYRAZOLES USEFUL IN THE TREATMENT OF INFLAMMATION” (Biolipox AB, priority 2007, published 2010)
pIC50: −log10 of the molar value. Read-outs that look alike come from different tables or passages of the source.

Target: T1, purified human 15-lipoxygenase (Homo sapiens, UniProt P16050)
T1 sequence (P16050 1-662): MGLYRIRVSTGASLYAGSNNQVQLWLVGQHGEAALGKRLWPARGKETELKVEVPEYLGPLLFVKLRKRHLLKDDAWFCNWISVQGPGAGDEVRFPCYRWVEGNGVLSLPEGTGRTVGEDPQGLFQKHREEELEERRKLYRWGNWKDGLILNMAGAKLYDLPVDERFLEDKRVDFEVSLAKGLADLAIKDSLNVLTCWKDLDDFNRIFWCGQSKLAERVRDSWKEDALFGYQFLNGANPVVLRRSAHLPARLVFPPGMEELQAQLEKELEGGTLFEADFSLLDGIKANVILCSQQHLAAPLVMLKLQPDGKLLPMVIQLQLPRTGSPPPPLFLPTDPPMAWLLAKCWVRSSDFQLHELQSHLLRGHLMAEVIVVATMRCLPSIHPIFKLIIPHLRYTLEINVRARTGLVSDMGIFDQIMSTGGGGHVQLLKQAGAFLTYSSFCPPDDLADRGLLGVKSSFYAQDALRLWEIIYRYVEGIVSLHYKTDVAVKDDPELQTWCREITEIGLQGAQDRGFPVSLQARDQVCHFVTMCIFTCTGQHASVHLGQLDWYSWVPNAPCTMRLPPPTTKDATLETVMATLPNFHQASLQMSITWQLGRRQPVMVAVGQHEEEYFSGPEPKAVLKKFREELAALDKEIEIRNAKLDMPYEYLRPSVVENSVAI
Test: 15-lipoxygenase inhibition assay (arachidonic acid oxidation, reverse phase HPLC readout)
Format: biochemical
Protocol: The assay employed takes advantage of the ability of lipoxygenases to oxidize polyunsaturated fatty acids, containing a 1,4-cis-pentadiene configuration, to their corresponding hydroperoxy or hydroxyl derivatives. In this particular assay, the lipoxygenase was a purified human 15-lipoxygenase and the fatty acid was arachidonic acid. The assay is performed at room temperature (20-22° C.) and the following are added to each well in a 96-well microtiter plate:
a) 35 μL phosphate buffered saline (PBS) (pH 7.4); b) inhibitor (i.e. compound) or vehicle (0.5 μl DMSO); c) 10 μL of a 10× concentrated solution of 15-lipoxygenase in PBS. […] The plate is then incubated for 10 minutes at room temperature; e) the enzymatic reaction is terminated by the addition of 100 μl methanol; and f) the amount of 15-hydroperoxy-eicosatetraenoic acid or 15-hydroxy-eicosatetraenoic acid is measured by reverse phase HPLC.

[1] = arachidonic acid substrate, room temperature (20-22° C.), PBS pH 7.4, read-out: IC50

Row | Structure (SMILES) | pIC50 [1] | pIC50
1 | c1ccc2oc(-c3cc[nH]n3)nc2c1 [Example 1, 2-(Pyrazol-3-yl)-benzoxazole] |  | 6.65
2 | Clc1[nH]nc(-c2nc3cccnc3o2)c1Cl [Example 32, 2-(4,5-Dichloropyrazol-3-yl)oxazolo[5,4-b]pyridine] | 6.90 | 
3 | FC(F)(F)c1cnc2oc(-c3n[nH]c(Cl)c3Cl)nc2c1 [Example 33, 2-(4,5-Dichloropyrazol-3-yl)-6-(trifluoromethyl)-oxazolo[5,4-b]pyridine] | 7.07 | 

Further lines, with some results ahead:

Row | pIC50 [1] | Structure (SMILES) | pIC50
4 | 7.48 | Clc1cc(-c2nc3ccccc3o2)n[nH]1 [Example 11, 2-(5-Chloropyrazol-3-yl)benzoxazole] | 
5 | 7.39 | Fc1cccc2nc(-c3cc(Cl)[nH]n3)oc12 [Example 15, 2-(5-Chloropyrazol-3-yl)-7-fluorobenzoxazole] | 
6 | 7.31 | Fc1cccc2oc(-c3cc(Cl)[nH]n3)nc12 [Example 17, 2-(5-Chloropyrazol-3-yl)-4-fluorobenzoxazole] | 
7 | 7.46 | Fc1cccc2oc(-c3n[nH]c(Cl)c3Cl)nc12 [Example 18, 2-(4,5-Dichloropyrazol-3-yl)-4-fluorobenzoxazole] | 
